Laboratory results published in PubChem BioAssay (NCI).
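Where inhibition never reached the appropriate level, the endpoint shown equals the highest concentration tested. Otherwise, values were interpolated linearly from a five-concentration, 48-hour dose response in 96-well plates. The concentration for full growth arrest is given as TGI.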

Key:
Test in all cases: NCI anticancer screen, dose series, 48 h
786-0 renal = system: 786-0 renal
A498 renal = system: A498 renal
A549 NSCLC = system: A549 NSCLC
ACHN renal = system: ACHN renal
CAKI-1 renal = system: CAKI-1 renal
CCRF-CEM leukemia = system: CCRF-CEM leukemia
COLO 205 colon = system: COLO 205 colon
DLD-1 colon = system: DLD-1 colon
DMS 114 small cell lung = system: DMS 114 small cell lung
DMS 273 small cell lung = system: DMS 273 small cell lung
EKVX NSCLC = system: EKVX NSCLC
HCC-2998 colon = system: HCC-2998 colon
HCT-116 colon = system: HCT-116 colon
HL-60(TB) leukemia = system: HL-60(TB) leukemia
HOP-18 NSCLC = system: HOP-18 NSCLC
HOP-62 NSCLC = system: HOP-62 NSCLC
HOP-92 NSCLC = system: HOP-92 NSCLC
HT29 colon = system: HT29 colon
IGROV1 ovarian = system: IGROV1 ovarian
K-562 leukemia = system: K-562 leukemia
KM12 colon = system: KM12 colon
KM20L2 colon = system: KM20L2 colon
LOX IMVI melanoma = system: LOX IMVI melanoma
LXFL 529 NSCLC = system: LXFL 529 NSCLC
M14 melanoma = system: M14 melanoma
M19-MEL melanoma = system: M19-MEL melanoma
MALME-3M melanoma = system: MALME-3M melanoma
MOLT-4 leukemia = system: MOLT-4 leukemia
NCI-H226 lung = system: NCI-H226 lung
NCI-H23 lung = system: NCI-H23 lung
NCI-H460 lung = system: NCI-H460 lung
NCI-H522 lung = system: NCI-H522 lung
OVCAR-3 ovarian = system: OVCAR-3 ovarian
OVCAR-4 ovarian = system: OVCAR-4 ovarian
OVCAR-5 ovarian = system: OVCAR-5 ovarian
OVCAR-8 ovarian = system: OVCAR-8 ovarian
RPMI-8226 leukemia = system: RPMI-8226 leukemia
RXF 393 renal = system: RXF 393 renal
SF-268 CNS = system: SF-268 CNS
SF-295 CNS = system: SF-295 CNS
SF-539 CNS = system: SF-539 CNS
SK-MEL-28 melanoma = system: SK-MEL-28 melanoma
SK-OV-3 ovarian = system: SK-OV-3 ovarian
SN12C renal = system: SN12C renal
SNB-19 CNS = system: SNB-19 CNS
SNB-75 CNS = system: SNB-75 CNS
SNB-78 CNS = system: SNB-78 CNS
SR leukemia = system: SR leukemia
SW-620 colon = system: SW-620 colon
TK-10 renal = system: TK-10 renal
U251 CNS = system: U251 CNS
UACC-257 melanoma = system: UACC-257 melanoma
UACC-62 melanoma = system: UACC-62 melanoma
UO-31 renal = system: UO-31 renal
XF 498 CNS = system: XF 498 CNS
HCT-15 colon = system: HCT-15 colon
SK-MEL-2 melanoma = system: SK-MEL-2 melanoma

Measured: TGI

CN1C(=O)CC(CC(=O)C2CCCCC2=O)CC1=O (centres undefined)
not listed: HCT-15 colon | SK-MEL-2 melanoma
> 100 µM: all other assays above

O=C(Cn1cc(I)c(C(=O)NCC(O)CO)n1)NCC(O)CO (centres undefined)
not listed: CAKI-1 renal | OVCAR-5 ovarian | SR leukemia
> 100 µM: all other assays above
